The numbers were not newly measured in PMC10464202, “Discovery of novel JAK1 inhibitors through combining machine learning, structure-based pharmacophore modeling and bio-evaluation” (Journal of Translational Medicine, 2023), which cites them from elsewhere.

The target of the data set is JAK1 (Homo sapiens, UniProt P23458). To be noted: JAK1 inhibitors obtained by literature search; read-out: IC50 of training set (Hiphop).
JAK1, sequence (P23458 whole entry): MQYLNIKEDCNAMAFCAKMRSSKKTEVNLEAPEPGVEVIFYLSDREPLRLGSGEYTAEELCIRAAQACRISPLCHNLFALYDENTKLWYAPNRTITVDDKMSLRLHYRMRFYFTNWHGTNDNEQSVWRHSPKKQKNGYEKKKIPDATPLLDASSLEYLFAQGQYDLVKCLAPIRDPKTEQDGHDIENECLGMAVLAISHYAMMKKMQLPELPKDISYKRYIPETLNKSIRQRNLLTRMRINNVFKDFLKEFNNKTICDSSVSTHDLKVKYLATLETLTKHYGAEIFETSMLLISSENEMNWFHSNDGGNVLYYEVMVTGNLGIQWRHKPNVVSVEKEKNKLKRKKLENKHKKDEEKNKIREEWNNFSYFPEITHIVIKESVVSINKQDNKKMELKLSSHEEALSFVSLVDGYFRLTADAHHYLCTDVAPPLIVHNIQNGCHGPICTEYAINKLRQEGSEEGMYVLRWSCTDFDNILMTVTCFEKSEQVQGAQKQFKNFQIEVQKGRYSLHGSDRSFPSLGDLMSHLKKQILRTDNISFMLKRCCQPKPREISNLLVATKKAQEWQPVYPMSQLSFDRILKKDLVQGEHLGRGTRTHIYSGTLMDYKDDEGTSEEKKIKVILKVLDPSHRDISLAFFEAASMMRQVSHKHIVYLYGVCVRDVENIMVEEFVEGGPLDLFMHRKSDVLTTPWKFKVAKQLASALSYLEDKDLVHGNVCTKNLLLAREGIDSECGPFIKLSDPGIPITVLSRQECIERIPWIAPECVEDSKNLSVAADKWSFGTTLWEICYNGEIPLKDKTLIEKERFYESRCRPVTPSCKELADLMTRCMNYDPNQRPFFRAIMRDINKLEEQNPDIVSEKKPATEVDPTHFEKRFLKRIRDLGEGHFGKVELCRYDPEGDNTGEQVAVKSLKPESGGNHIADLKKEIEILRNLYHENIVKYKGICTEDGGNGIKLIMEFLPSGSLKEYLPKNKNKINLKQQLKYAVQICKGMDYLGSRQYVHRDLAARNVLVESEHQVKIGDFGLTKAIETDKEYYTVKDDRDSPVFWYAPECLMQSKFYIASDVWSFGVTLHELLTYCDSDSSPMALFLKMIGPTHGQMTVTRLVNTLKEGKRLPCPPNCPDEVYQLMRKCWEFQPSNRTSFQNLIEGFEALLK

One may read the IC50 as the concentration needed to halve the response being measured. As for `Cc1ccc(C(=O)Nc2cccc3c(-c4nc(Nc5cnn(C)c5)ncc4C)c[nH]c23)c(C)n1` [Compound 5], the IC50 was 4 nM.
